Measurements published in patent US12377175B2, “Trifunctional constructs with tunable pharmacokinetics useful in imaging and anti-tumor therapies” (Cornell University, priority 2016, dated 2025).
Several values for one entry are separate records, joined by “and”; a condition that tells them apart may be missing. Identical values can stand only once.

System: LNCaP xenograft tumor-bearing mice
Test: Biodistribution of 225Ac-macropa-RPS-070 in LNCaP xenograft mice
Type: in vivo, mouse
Details: for Organ distribution, Blood, Mean / Organ distribution, Bone, Mean / Organ distribution, Heart, Mean / Organ distribution, Kidneys, Mean / Organ distribution, Large Intestine, Mean / Organ distribution, Liver, Mean / Organ distribution, Lungs, Mean / Organ distribution, Muscle, Mean / Organ distribution, Pancreas, Mean / Organ distribution, Small Intestine, Mean / Organ distribution, Spleen, Mean / Organ distribution, Stomach, Mean / Organ distribution, Tumor, Mean: n = 5
Procedure: Cell Culture. […] Cell culture supplies were from Invitrogen unless otherwise noted.
Inoculation of Mice with Xenografts. All animal studies were approved by the Institutional Animal Care and Use Committee of Weill Cornell Medicine and were undertaken in accordance with the guidelines set forth by the USPHS Policy on Humane Care and Use of Laboratory Animals. Animals were housed under standard conditions in approved facilities with 12 h light/dark cycles. Food and water was provided ad libitum throughout the course of the studies. Hairless male nu/nu mice were purchased from the Jackson Laboratory. For inoculation in mice, LNCaP cells were suspended at 4×10^7 cells/mL in a 1:1 mixture of PBS:Matrigel (BD Biosciences). Each mouse was injected in the left flank with 0.25 mL of the cell suspension. Biodistributions were conducted when tumors were in the range 100-400 mm^3.
Biodistribution of […] in LNCaP xenograft mice. Fifteen LNCaP xenograft tumor-bearing mice (5 per time point) were injected intravenously with a bolus injection of 85-95 kBq and 100 ng ([…]) of each ligand. The mice were sacrificed by cervical dislocation at 4, 24 and 96 h post injection. A blood sample was removed, and a full biodistribution study was conducted on the following organs (with contents): heart, lungs, liver, small intestine, large intestine, stomach, spleen, pancreas, kidneys, muscle, bone, and tumor. Tissues were weighed and counted on a 2470 Wizard Automatic Gamma Counter (Perkin Elmer). 1% ID/mL samples were counted prior to and following each set of tissue samples to enable decay correction to be undertaken. Counts were corrected for decay and for activity injected, and tissue uptake was expressed as percent injected dose per gram (% ID/g). Standard error measurement was calculated for each data point.

## O=C(O)CC[C@H](NC(=O)N[C@@H](CCCCNC(=O)Nc1cccc(-c2cn(CCOCCOCCOCCOCCOCCOCCC(=O)N[C@@H](CCCCNC(=S)Nc3cc(CN4CCOCCOCCN(Cc5cccc(C(=O)[O-])n5)CCOCCOCC4)nc(C(=O)[O-])c3)C(=O)N[C@@H](CCCCNC(=O)Cc3ccc(I)cc3)C(=O)O)nn2)c1)C(=O)O)C(=O)O.[225Ac+3] [225Ac-macropa-RPS-070]
24 h after i.v. injection
  Organ distribution, Blood, Mean: 0.2908 % ID/g
  Organ distribution, Bone, Mean: 0.9764 % ID/g
  Organ distribution, Heart, Mean: 0.4964 % ID/g
  Organ distribution, Kidneys, Mean: 4.192 % ID/g
  Organ distribution, Large Intestine, Mean: 0.1315 % ID/g
  Organ distribution, Liver, Mean: 1.364 % ID/g
  Organ distribution, Lungs, Mean: 0.4653 % ID/g
  Organ distribution, Muscle, Mean: 0.5603 % ID/g
  Organ distribution, Pancreas, Mean: 0.3891 % ID/g
  Organ distribution, Small Intestine, Mean: 0.09473 % ID/g
  Organ distribution, Spleen, Mean: 0.6122 % ID/g
  Organ distribution, Stomach, Mean: 0.1326 % ID/g
  Organ distribution, Tumor, Mean: 8.17 % ID/g
96 h after i.v. injection
  Organ distribution, Blood, individual mice 1-5: 0.1904 % ID/g and 0.1919 % ID/g and 0.1521 % ID/g and 0.1653 % ID/g and 0.2382 % ID/g
  Organ distribution, Bone, individual mice 1-5: 0.8639 % ID/g and 0.8687 % ID/g and 0.8383 % ID/g and 1.122 % ID/g and 0.8204 % ID/g
  Organ distribution, Heart, individual mice 1-5: 0.3994 % ID/g and 0.424 % ID/g and 0.4286 % ID/g and 0.4459 % ID/g and 0.456 % ID/g
  Organ distribution, Kidneys, individual mice 1-5: 1.303 % ID/g and 1.3239 % ID/g and 2.004 % ID/g and 1.399 % ID/g and 1.46 % ID/g
  Organ distribution, Large Intestine, individual mice 1-5: 0.04349 % ID/g and 0.09663 % ID/g and 0.04522 % ID/g and 0.04198 % ID/g and 0.03927 % ID/g
  Organ distribution, Liver, individual mice 1-5: 0.7941 % ID/g and 0.8144 % ID/g and 0.733 % ID/g and 0.7917 % ID/g and 0.7942 % ID/g
  Organ distribution, Lungs, individual mice 1-5: 0.3016 % ID/g and 0.5091 % ID/g and 0.4694 % ID/g and 0.3781 % ID/g and 0.3698 % ID/g
  Organ distribution, Muscle, individual mice 1-5: 0.3022 % ID/g and 0.5249 % ID/g and 0.2509 % ID/g and 0.2982 % ID/g and 0.2528 % ID/g
  Organ distribution, Pancreas, individual mice 1-5: 0.09848 % ID/g and 0.377 % ID/g and 0.3055 % ID/g and 0.3162 % ID/g and 0.3335 % ID/g
  Organ distribution, Small Intestine, individual mice 1-5: 0.04372 % ID/g and 0.0577 % ID/g and 0.03752 % ID/g and 0.04431 % ID/g and 0.04136 % ID/g
  Organ distribution, Spleen, individual mice 1-5: 0.4837 % ID/g and 0.394 % ID/g and 0.4426 % ID/g and 0.4348 % ID/g and 0.5397 % ID/g
  Organ distribution, Stomach, individual mice 1-5: 0.03442 % ID/g and 0.04708 % ID/g and 0.03448 % ID/g and 0.02845 % ID/g and 0.02366 % ID/g
  Organ distribution, Tumor, individual mice 1-5: 4.043 % ID/g and 4.078 % ID/g and 6.74 % ID/g and 4.581 % ID/g and 4.845 % ID/g
  Organ distribution, Blood, Mean: 0.1876 % ID/g
  Organ distribution, Bone, Mean: 0.9027 % ID/g
  Organ distribution, Heart, Mean: 0.4333 % ID/g
  Organ distribution, Kidneys, Mean: 1.4978 % ID/g
  Organ distribution, Large Intestine, Mean: 0.05332 % ID/g
  Organ distribution, Liver, Mean: 0.7855 % ID/g
  Organ distribution, Lungs, Mean: 0.4056 % ID/g
  Organ distribution, Muscle, Mean: 0.3258 % ID/g
  Organ distribution, Pancreas, Mean: 0.2861 % ID/g
  Organ distribution, Small Intestine, Mean: 0.04492 % ID/g
  Organ distribution, Spleen, Mean: 0.459 % ID/g
  Organ distribution, Stomach, Mean: 0.03362 % ID/g
  Organ distribution, Tumor, Mean: 4.857 % ID/g
96 h post injection
  uptake by other organs (other than kidneys and tumor): < 1 % ID/g
